# Test results from US6353003B1, “Method for reducing levels of homocysteine and C-reactive protein” (Eli Lilly and Company, priority 1998, dated 2002).
# Key:
# [1] = system: C-reactive protein; test: Clinical investigation: C-reactive protein levels after six months versus baseline; type: in vivo, human; parameters: lowered C-reactive protein: unit not given here; settings: postmenopausal women, six months vs patient's baseline, NS
# Experimental: (§1) A clinical investigation was conducted which included 390 women (45-72 years old), who were an average of ten years postmenopausal. These patients were randomly assigned to the following treatment protocol: raloxifene hydrochloride at 60 mg per day via oral administration (cf. Formulation 2, supra), raloxifene at 120 mg per day, or HRT therapy. Homocysteine and C-reactive protein baseline levels were determined, prior to the initiation of therapy. Methods for such determinations are well known and can be found in the references cited, supra. The study was conducted for a period of six months. The levels of homocysteine and C-reactive protein in each patient were compared at the end of six months with that patient's baseline. Results were analyzed by variance. Raloxifene at 60 mg per day lowered levels of homocysteine by 8% (p<0.05) and C-reactive protein by 4% (NS). Raloxifene at 120 mg per day lowered homocysteine by 5.7% (p<0.05) and C-reactive protien by −3.9 (NS).
# [2] = system: homocysteine; test: Clinical investigation: homocysteine levels after six months versus baseline; type: in vivo, human; settings: postmenopausal women, six months vs patient's baseline, p<0.05
# Experimental: as §1
structure (smiles),measurement,setting,value
"Cl.O=C(c1ccc(OCCN2CCCCC2)cc1)c1c(-c2ccc(O)cc2)sc2cc(O)ccc12 [Raloxifene, [2-(4-hydroxyphenyl)-6-hydroxybenzo [b]thien-3-yl][4-[2-(1-piperidinyl)ethoxy]phenyl]methanone hydrochloride]",lowered levels of C-reactive protein,[1]; 60 mg per day oral,4%
same,lowered C-reactive protein,[1]; 120 mg per day,−3.9
same,lowered levels of homocysteine,[2]; 60 mg per day oral,8%
same,lowered homocysteine,[2]; 120 mg per day,5.7%
